Measured values: patent US20260027073A1, “USE OF SMALL-MOLECULE COMPOUND HAVING NAPHTHYLAMINE STRUCTURE” (HANGZHOU PHECDAMED CO., LTD., priority 2023, published 2026)

How the values were obtained:
[1] = test system: myocardial infarction rats; experiment: Myocardial infarction by coronary artery ligation; assay type: in vivo, SD rats; details: TJ01-013 30 mg/kg, Entresto 10 mg/kg, oral, 4 weeks
Protocol: 180 g-200 g SD rats were anesthetized by chloral hydrate after fasting for 12 h, the hair from the mandible to the upper part of the abdominal cavity and the ventral surfaces of the limbs was removed cleanly, and they were fixed on the surgical table, firstly, a small incision of about 1.5 cm was made in the neck with a scalpel, and then the subcutaneous muscle layer was bluntly separated with surgical scissors to expose the trachea, and then the tracheal tube was intubated and connected to the animal respiratory machine. After sterilizing with iodophor, the skin was cut on the left side of the chest between the 3rd and 4th ribs, and the muscles were bluntly separated to expose the ribs. The 3rd rib was cut with surgical scissors, hemostatic forceps were used to clamp and break the cut rib, and an eyelid opener was placed to peel the pericardium. After the pericardium was cut, a cotton swab moistened with saline was used to gently pivot the heart to locate the left auricle and coronary arteries. A threaded suture needle was clamped with a microscopic needle holder, and passed through the myocardium from right to left at 2-3 mm below the left auricle to ligate the coronary artery. At the end of the ligation, the organs in the thoracic cavity were recovered with saline-soaked cotton swabs, and figure-of-eight sutures were applied to the third and fourth ribs. After the rib layer suture was completed, subcutaneous muscle layering suture was performed, and the skin was finally sutured. After dialing out the tracheal tube, the rats were closely observed whether they had spontaneous respiration or not, and if there was no respiration they should be immediately pressed on the chest cavity for cardiopulmonary resuscitation. The electrocardiograph was connected to measure the postoperative electrocardiogram. […] The drug was administered orally by gavage in a volume of 10 ml/kg, and the frequency of administration was once a day for 4 weeks, and then the rats were anesthetized for cardiac ultrasound.
The rats were anesthetized by intraperitoneal injection of sodium pentobarbital 40 mg/kg, and the limbs were fixed on a wooden board in supine position, and the board was tilted to the left at 30 degrees. The chest was shaved and a II lead ECG was connected. A ULTRAMARK 9 ultrasonic diagnostic instrument from ATL, USA was used with a wide bandwidth line array probe with a frequency of 10 MHz-5 MHz. The Doppler detection frequency was 6.0 MHz, the length of the probe was 38 mm, the gain of the instrument was fixedly set as 50 dB in the experiment, and the depth of the image was adjusted to 2.5 cm. The probe was placed on the left side of the sternum at 10-30 degrees from the midline of the sternum to display the parasternal left ventricular long-axis view, and the probe was rotated clockwise by 90 degrees to display the left ventricular view. Doppler flow measurements of the mitral and aortic valves were performed in the parasternal left ventricular long-axis view and the pulmonary artery long-axis view. Ultrasound measurement indexes included left ventricular end-diastolic internal diameter (LVDd), end-systolic internal diameters (LVDs), left ventricular ejection fraction EF, left ventricular short-axis shortening rate FS, and infarct size.

[2] = test system: Mesenchymal stem cells (MSC) differentiated from normal human pluripotent stem cells (iPSC); experiment: Senescence of normal human derived mesenchymal stem cells; assay type: cell-based; details: 10 μM
Protocol: Mesenchymal stem cells (MSC) differentiated from normal human pluripotent stem cells (iPSC) were taken for culture, and the experiment was divided into three groups: young cells cultured for 6 generations, labeled as Con-Y; senescent cells cultured for 16 generations, labeled as Con-O; and the administration group, to which 10 μM TJ01-013 was added during the process of culture, similarly cultured up to the 16th generation, and labeled as Con-O+TJ01-013, and after the end of the treatment, all cells were placed under the microscope to observe the morphology of the cells, and the percentage of SA-β-gal+ cells was count. The levels of the DNA damage marker γ-H2AX and the heterochromatin modification H3K9me3 after TJ01-013 treatment were detected by immunofluorescence technique (procedure described previously).

[3] = test system: rats of adenine induced kidney injury model; experiment: Adenine-induced kidney injury; assay type: in vivo, SD rats; details: 15 mg/kg, 21 days; FIG. 12

**Q.** Which infarct size ([1]; FIG. 37) does the source give for `O=C(O)C[S+]([O-])c1cc(NS(=O)(=O)c2ccc(Br)cc2)c2ccccc2c1O` (stereo not drawn) [I-1] here?
**A.** Its infarct size is “reduced”.

**Q.** What about the “left ventricular end-diastolic diameter (LVDd)” value ([1]; FIG. 38) of the same molecule?
**A.** Its value is “no significant effect”.

**Q.** And the “end-systolic diameter (LVDs)” value ([1]; FIG. 39)?
**A.** The value was “did not have a significant effect”.

**Q.** And the “left ventricular ejection fraction EF” value ([1]; FIG. 40)?
**A.** The value was “significantly increased”.

**Q.** What about the “left ventricular short-axis fractional shortening FS” value ([1]; FIG. 41) of the same molecule?
**A.** Its value is “significantly increased”.

**Q.** And the “percentage of SA-β-gal-positive cells” value ([2]; 16th generation, vs Con-O, FIG. 51)?
**A.** The value was “significantly decreased”.

**Q.** What about the “level of DNA damage marker γ-H2AX” value ([2]; FIG. 52) of the same molecule?
**A.** The value was “significantly reduced”.

**Q.** And the “expression level of heterochromatin-modified H3K9me3” value ([2]; FIG. 53)?
**A.** The value was “restored its expression level to some extent”.

**Q.** What about the “IL-1β level in kidney tissues” value [3] of the same molecule?
**A.** Its value is “tendency to be decreased”.
